Measured values from US4072810A, “Coupled peroxides” (priority 1973, dated 1978).
Where two headings read alike, the source gives them in different places.

How the values were obtained:
[1] = Crosslinking of polyethylene (Table I, xylene solvent extraction); conditions: for % Crosslinking: 30 minutes; for efficiency as crosslinking agent: in words, see Table I
Method: A mixture of the desired polymeric material and 0.01 mole of the difunctional coupled compound is blended together on a standard roll mill, such as used in the rubber industry. […]
The slabs are permitted to cool down and mature at room temperature for 24 hours. The mature slabs were then cut into dumbell shaped samples and tested for tensile strength on an Instron Tensile Tester, following ASTM procedure as described in D412-61T "Tension Testing of Vulcanized Rubber" or the crosslinking in the case of polyethylene is determined by the solvent extraction procedure. In addition to the polymer-peroxide mixture, the crosslinkable mixture, may contain co-agents such as sulfur, promoters, fillers, and reinforcing materials. Desirable fillers are carbon black, titanium dioxide, calcium silicate and alkaline earth metal carbonates.
In Table I the crosslinking ability of the coupled compounds of our invention in polyethylene are compared to a hydroxy-containing peroxide and to difunctional peroxides. Tables II, III, and IV show the versatility of the product of our invention in urethane rubber, ethylene-propylene rubber and silicone rubber.
The polyethylene used for this test was a low density polyethylene
Bakelite DYNH-1, having the following physical properties:
The crosslinking test was carried out at 340° and 375° F.
(1) The percentage crosslinking was determined by extraction of the
crosslinked sample with refluxing xylene. In all cases the polyethylene
charge was 100% extractable before crosslinking.
(2) Based on number of active oxygens per mole.

[2] = Half-life of coupled and uncoupled hydroxy-peroxides in benzene; type: physicochemical; conditions: for t1/2: benzene, 0.1 molar, 100000 µM; for half-life relative to the hydroxy containing peroxide precursors: in words, see Example XVI
Excerpt: Half-Life Comparisons of Coupled and Uncoupled Hydroxy-Peroxides (Carried out in Benzene at 0.1 molar concentrations)

[3] = Volatility and thermal stability of peroxides (in words); type: physicochemical
Excerpt: Some of the desirable properties that a peroxide has to have to be useful for crosslinking polyethylene are: low volatility, high thermal stability, and good efficiency with respect to its active oxygen content.
The volatility and the thermal stability are necessary requisites, since the peroxide has to tolerate the high temperatures of the milling operation, which is a necessary step to incorporate the peroxide with the polymer before the crosslinking process. If the peroxide is too volatile (as in the case of di-t-butyl peroxide) there would not be any peroxide left for the crosslinking process at the end of the milling step. If the peroxide is not volatile, but its thermal stability is low, a premature decomposition of the peroxide will take place during the milling step, which results in a premature crosslinking of the polymer. If this happens, the polymer cannot be shaped or formed any further since the thermoplastic polymer has become thermoset too soon.

[4] = Initiation of vinyl monomer (styrene) polymerization
Method: This example illustrates the use of coupled peroxides of present disclosures as initiators of vinyl monomer polymerization. Compound [B] (from Example V) at a concentration of 5 × 10^-4 moles per deciliter of styrene, polymerized styrene at 100° C. at a rate of 6.20 × 10^-3 moles per liter per minute. When no initiator is present, the thermal polymerization of styrene at 100° C. proceeds at a rate of 2.82 × 10^-3 moles per liter per minute. Compound [A] (from Examples I, II, and III) at a concentration of 5 × 10^-4 moles per diciliter of styrene polymerized styrene 1.65 faster at 115° C. than the thermal polymerization rate when no polymerization initiator is present.

[5] = S.P.I. exotherm, curing an unsaturated polyester-styrene resin (Table V); conditions: 1% concentration; for Cure Time / Gel Time: 115° C.; for Peak: exotherm at 115° C.
Method: An unsaturated polyester resin was made by reacting maleic anhydride (1.0 mole), phthalic anhydride (1.0 mole), and propylene glycol (2.2 mole) until an acid number of 45-50 was obtained. To this was added hydroquinone at a 0.013% concentration. Seven parts of this unsaturated polyester was diluted with 3 parts of monomeric styrene to obtain a homogeneous blend having a viscosity of 13.08 poise and a specific gravity of 1.14. To 20 g. of this blend was added the 0.2 g. of the desired coupled peroxide and the resulting composition placed in a constant temperature bath at 115° C.
The internal temperature was recorded as function of time. The following results were obtained with some of the coupled compounds (Table V):
S.P.I. EXOTHERM AT 115° C. AND 1% CONCENTRATION
IN POLYESTER RESIN PREPARED IN EXAMPLE VIII

[6] = in words; milling step; cited from earlier work

Structure (SMILES) | % Crosslinking ([1]; 340° F., 0.010 molar equivs.) [%] | % Crosslinking ([1]; 340° F., 0.015 molar equivs.) [%] | % Crosslinking ([1]; 375° F., 0.010 molar equivs.) [%] | % Crosslinking ([1]; 375° F., 0.015 molar equivs.) [%] | efficiency as crosslinking agent [1] | Cure Time [5] [min] | Gel Time [5] [min] | Peak [5] [° F] | other results
CC(C)(C)OOC(C)(C)CCC(C)(C)OOC(C)(C)C [2,5-dimethyl-2,5-di(t-butylperoxy)-hexane] | 85.9 | 89.3 | 84.5 | 88.0 | not as efficient in utilizing their active oxygen content as the difunctional peroxide of our invention |  |  |  | 
CC(C)(C)OOC(C)(C)C#CC(C)(C)OOC(C)(C)C [2,5-dimethyl-2,5-di(t-butylperoxy)-hexyne-3] | 81.8 | 86.0 | 84.9 | 87.7 | not as efficient in utilizing their active oxygen content as the difunctional peroxide of our invention |  |  |  | 
CC(O)CC(C)(C)OOC(C)(C)C (stereo not drawn) [2-Methyl-2-(t-butylperoxy)-4-pentanol] |  | 78.4 |  | 75.4 | poor |  |  |  | t1/2 ([2]; 115° C.): 13.6 h; thermal stability [3]: good; volatility [3]: low
CC(CC(C)(C)OOC(C)(C)C)OC(=O)OC(C)CC(C)(C)OOC(C)(C)C (stereo not drawn) [Di[1,3-dimethyl-3-(t-butylperoxy)butyl] carbonate] | 89.3 |  | 89.7 |  |  | 11.1 | 9.5 | 455 | styrene polymerization, faster than the thermal polymerization rate when no initiator is present ([4]; 115° C., 5 × 10^-4 moles per diciliter of styrene): 1.65; t1/2 ([2]; 115° C.): 26.8 h; half-life relative to the hydroxy containing peroxide precursors [2]: almost double
CC(CC(C)(C)OOC(C)(C)C)OC(=O)CCC(=O)OC(C)CC(C)(C)OOC(C)(C)C (stereo not drawn) [Di[1,3-dimethyl-3-(t-butylperoxy)butyl]succinate] | 88.9 |  | 89.2 |  |  |  |  |  | 
CC(C)(C)OOC(=O)CCOC(=O)OCCC(=O)OOC(C)(C)C [Di[2-(t-butylperoxycarbonyl)ethyl]carbonate] |  |  |  |  |  | 8.5 | 7.1 | 450 | rate of styrene polymerization ([4]; 100° C., 5 × 10^-4 moles per deciliter of styrene): 6.20 × 10^-3 moles per liter per minute; t1/2 ([2]; 100° C.): 30.7 h; half-life relative to the hydroxy containing peroxide precursors [2]: almost double
CC(CC(C)(C)OOC(C)(C)C)OC(=O)OCCOC(=O)OC(C)CC(C)(C)OOC(C)(C)C (stereo not drawn) [Ethylene Bis[1,3-dimethyl-3-(t-butylperoxy)-butyl carbonate]] | 87.9 |  | 87.4 |  |  | 12.8 | 10.8 | 450 | 
CC(C)(C)OOC(C)(C)C [di-t-butyl peroxide] |  |  |  |  |  |  |  |  | volatility [6]: too volatile
CC(C)(C)OOC(=O)CCO [t-butylperoxy 3-hydroxypropionate, reference compound] |  |  |  |  |  |  |  |  | t1/2 ([2]; 100° C.): 13.0 h
